Results from patent publication US8247211B2, “Glycopeptide antibiotics” (American Cyanamid Company, priority 2001, dated 2012).

Assays:
Test in all cases: In vitro antibacterial evaluation: minimum inhibitory concentration (MIC), broth dilution method
Format in all cases: cell-based
[1] = system: Escherichia coli
[2] = system: Streptococcus sp.; conditions: 18 hours at 35° C.
Outline: (§1)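 Values are minimum inhibitory concentrations, meaning the smallest antibiotic concentration that stops growth of the organism. They come from broth dilution in Muller-Hinton II […] per NCCLS guidance (M7-A2), using 5×10^5 CFU/mL and concentrations from 64 to 0.06 μg/mL.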

[3] = system: Staphylococcus sp.; conditions: 18 hours at 35° C.
Outline: as §1

[4] = system: Escherichia coli; remark: listed apart in the source
Outline: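 NCCLS M7-A2 broth dilution; Muller-Hinton II […]; 5×10^5 CFU/mL; 64-0.06 μg/mL. MIC = lowest concentration with no growth.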

[5] = system: Enterococcus sp.
Outline: as §1

[6] = Streptococcus agalactiae (GC 4564)
[7] = Streptococcus pneumoniae (GC 4565)
[8] = Streptococcus pyogenes (ID-3187)
[9] = Staphylococcus aureus (ATCC 29213)
[10] = Staphylococcus aureus (GC 1131)
[11] = Staphylococcus aureus (GC 4541)
[12] = Staphylococcus aureus (GC 4542)
[13] = Staphylococcus aureus (GC 4544)
[14] = Staphylococcus aureus (GC 4545)
[15] = broth dilution, strain ATCC 29213
[16] = Enterococcus faecalis (ATCC 29212)
[17] = Enterococcus faecalis (GC 2242), 18 hours at 35° C.
[18] = Enterococcus faecalis (GC 4552), 18 hours at 35° C.
[19] = Enterococcus faecalis (GC 4553)
[20] = Enterococcus faecalis (GC 4554)
[21] = broth dilution, 18 hours at 35° C., strain ATCC 29212
[22] = broth dilution, 18 hours at 35° C., strain GC 2242
[23] = broth dilution, 18 hours at 35° C., strain GC 2243
[24] = broth dilution, 18 hours at 35° C., strain GC 4552
[25] = broth dilution, 18 hours at 35° C., strain GC 4553
[26] = broth dilution, 18 hours at 35° C., strain GC 4554
[27] = broth dilution, 18 hours at 35° C., strain GC 4556
[28] = broth dilution, 18 hours at 35° C., strain GC 4557
[29] = broth dilution, 18 hours at 35° C., strain GC 4558

“α-O-[(Cyclohexylamino)carbonyl]-cyclo[glycyl-β-methylphenylalanyl-O-(4-O-hexopyranosylhexopyranosyl)tyrosyl-3-(2-iminoimidazolidin-4-yl)seryl-3-(3-hexopyranosyl-2-iminoimidazolidin-4-yl)serylseryl] [Example 256]” was tested, and the “MIC Escherichia coli (ATCC 25922)” value [1] was over 64 µg/mL, the “MIC Streptococcus agalactiae (GC 4564)” value [2, 6] was over 64 µg/mL and the “MIC Streptococcus pneumoniae (GC 4565)” value [2, 7] was over 64 µg/mL. The “MIC Streptococcus pyogenes (ID-3187)” value [2, 8] was 64 µg/mL, the “MIC Streptococcus agalactiae (GC 4564)” value ([2]; broth dilution, strain GC 4564) was over 64 µg/mL and the “MIC Streptococcus pneumoniae (GC 4565)” value ([2]; broth dilution, strain GC 4565) was over 64 µg/mL. The “MIC Streptococcus pyogenes (ID-3187)” value ([2]; broth dilution, strain ID-3187) was 64 µg/mL, the “MIC Coagulase Negative Staphylococcus (GC 4547)” value [3] was over 64 µg/mL and the “MIC Coagulase Negative Staphylococcus (GC 4548)” value [3] was over 64 µg/mL. The “MIC Coagulase Negative Staphylococcus (GC 4549)” value [3] was over 64 µg/mL, the “MIC Coagulase Negative Staphylococcus (GC 4551)” value [3] was over 64 µg/mL and the “MIC Coagulase Negative Staphylococcus (ID-3941)” value [3] was over 64 µg/mL. The “MIC Staphylococcus aureus (ATCC 29213)” value [3, 9] was over 64 µg/mL, the “MIC Staphylococcus aureus (GC 1131)” value [3, 10] was over 64 µg/mL and the “MIC Staphylococcus aureus (GC 4541)” value [3, 11] was over 64 µg/mL. The “MIC Staphylococcus aureus (GC 4542)” value [3, 12] was over 64 µg/mL, the “MIC Staphylococcus aureus (GC 4544)” value [3, 13] was over 64 µg/mL and the “MIC Staphylococcus aureus (GC 4545)” value [3, 14] was over 64 µg/mL. The “MIC Staphylococcus aureus-SMITH (GC 4543)” value [3] was over 64 µg/mL, the “MIC Staphylococcus haemolyticus (GC 4546)” value [3] was over 64 µg/mL and the “MIC Staphylococcus aureus (ATCC 29213)” value [3, 15] was over 64 µg/mL. The “MIC Staphylococcus aureus (GC 1131)” value ([3]; broth dilution, strain GC 1131) was over 64 µg/mL, the “MIC Staphylococcus aureus (GC 4541)” value ([3]; broth dilution, strain GC 4541) was over 64 µg/mL and the “MIC Staphylococcus aureus (GC 4542)” value ([3]; broth dilution, strain GC 4542) was over 64 µg/mL. The “MIC Staphylococcus aureus (GC 4544)” value ([3]; broth dilution, strain GC 4544) was over 64 µg/mL, the “MIC Staphylococcus aureus (GC 4545)” value ([3]; broth dilution, strain GC 4545) was over 64 µg/mL and the “MIC Escherichia coli (GC 4559)” value [4] was over 64 µg/mL. The “MIC Escherichia coli (GC 4560)” value [4] was 32 µg/mL, the “MIC Enterococcus avium (GC 4558)” value ([5]; Enterococcus avium (GC 4558)) was over 64 µg/mL and the “MIC Enterococcus faecalis (ATCC 29212)” value [5, 16] was over 64 µg/mL. The “MIC Enterococcus faecalis (GC 2242)” value [5, 17] was over 64 µg/mL, the “MIC Enterococcus faecalis (GC 4552)” value [5, 18] was over 64 µg/mL and the “MIC Enterococcus faecalis (GC 4553)” value [5, 19] was over 64 µg/mL. The “MIC Enterococcus faecalis (GC 4554)” value [5, 20] was over 64 µg/mL, the “MIC Enterococcus faecium (GC 2243)” value ([5]; Enterococcus faecium (GC 2243)) was over 64 µg/mL and the “MIC Enterococcus faecium (GC 4556)” value ([5]; Enterococcus faecium (GC 4556)) was over 64 µg/mL. For the same substance, the “MIC Enterococcus faecium (GC 4557)” value ([5]; Enterococcus faecium (GC 4557)) was 64 µg/mL, the “MIC Enterococcus faecalis (ATCC 29212)” value [5, 21] was over 64 µg/mL and the “MIC Enterococcus faecalis (GC 2242)” value [5, 22] was over 64 µg/mL. For the same substance, the “MIC Enterococcus faecium (GC 2243)” value [5, 23] was over 64 µg/mL, the “MIC Enterococcus faecalis (GC 4552)” value [5, 24] was over 64 µg/mL and the “MIC Enterococcus faecalis (GC 4553)” value [5, 25] was over 64 µg/mL. For the same substance, the “MIC Enterococcus faecalis (GC 4554)” value [5, 26] was over 64 µg/mL, the “MIC Enterococcus faecium (GC 4556)” value [5, 27] was over 64 µg/mL and the “MIC Enterococcus faecium (GC 4557)” value [5, 28] was 64 µg/mL. The “MIC Enterococcus avium (GC 4558)” value [5, 29] was over 64 µg/mL.

“β-O-[(Cyclohexylamino)carbonyl]-cyclo[glycyl-β-methylphenylalanyl-O-(4-O-hexonyranosylhexopyranosyl)tyrosyl-3-(2-iminoimidazolidin-4-yl)seryl-3-(3-hexopyranosyl-2-iminoimidazolidin-4-yl)serylseryl] [Example 256a]” was tested, and the “MIC Escherichia coli (ATCC 25922)” value [1] was over 64 µg/mL, the “MIC Streptococcus agalactiae (GC 4564)” value [2, 6] was over 64 µg/mL and the “MIC Streptococcus pneumoniae (GC 4565)” value [2, 7] was 64 µg/mL. For the same substance, the “MIC Streptococcus pyogenes (ID-3187)” value [2, 8] was 64 µg/mL, the “MIC Streptococcus agalactiae (GC 4564)” value ([2]; broth dilution, strain GC 4564) was over 64 µg/mL and the “MIC Streptococcus pneumoniae (GC 4565)” value ([2]; broth dilution, strain GC 4565) was 64 µg/mL. For the same substance, the “MIC Streptococcus pyogenes (ID-3187)” value ([2]; broth dilution, strain ID-3187) was 64 µg/mL, the “MIC Coagulase Negative Staphylococcus (GC 4547)” value [3] was over 64 µg/mL and the “MIC Coagulase Negative Staphylococcus (GC 4548)” value [3] was over 64 µg/mL. The “MIC Coagulase Negative Staphylococcus (GC 4549)” value [3] was over 64 µg/mL, the “MIC Coagulase Negative Staphylococcus (GC 4551)” value [3] was over 64 µg/mL and the “MIC Coagulase Negative Staphylococcus (ID-3941)” value [3] was 64 µg/mL. For the same substance, the “MIC Staphylococcus aureus (ATCC 29213)” value [3, 9] was over 64 µg/mL, the “MIC Staphylococcus aureus (GC 1131)” value [3, 10] was over 64 µg/mL and the “MIC Staphylococcus aureus (GC 4541)” value [3, 11] was over 64 µg/mL. The “MIC Staphylococcus aureus (GC 4542)” value [3, 12] was over 64 µg/mL, the “MIC Staphylococcus aureus (GC 4544)” value [3, 13] was over 64 µg/mL and the “MIC Staphylococcus aureus (GC 4545)” value [3, 14] was over 64 µg/mL. For the same substance, the “MIC Staphylococcus aureus-SMITH (GC 4543)” value [3] was over 64 µg/mL, the “MIC Staphylococcus haemolyticus (GC 4546)” value [3] was over 64 µg/mL and the “MIC Staphylococcus aureus (ATCC 29213)” value [3, 15] was over 64 µg/mL. The “MIC Staphylococcus aureus (GC 1131)” value ([3]; broth dilution, strain GC 1131) was over 64 µg/mL, the “MIC Staphylococcus aureus (GC 4541)” value ([3]; broth dilution, strain GC 4541) was over 64 µg/mL and the “MIC Staphylococcus aureus (GC 4542)” value ([3]; broth dilution, strain GC 4542) was over 64 µg/mL. The “MIC Staphylococcus aureus (GC 4544)” value ([3]; broth dilution, strain GC 4544) was over 64 µg/mL, the “MIC Staphylococcus aureus (GC 4545)” value ([3]; broth dilution, strain GC 4545) was over 64 µg/mL and the “MIC Escherichia coli (GC 4559)” value [4] was over 64 µg/mL. The “MIC Escherichia coli (GC 4560)” value [4] was 8 µg/mL, the “MIC Enterococcus avium (GC 4558)” value ([5]; Enterococcus avium (GC 4558)) was over 64 µg/mL and the “MIC Enterococcus faecalis (ATCC 29212)” value [5, 16] was over 64 µg/mL. For the same substance, the “MIC Enterococcus faecalis (GC 2242)” value [5, 17] was over 64 µg/mL, the “MIC Enterococcus faecalis (GC 4552)” value [5, 18] was over 64 µg/mL and the “MIC Enterococcus faecalis (GC 4553)” value [5, 19] was over 64 µg/mL. The “MIC Enterococcus faecalis (GC 4554)” value [5, 20] was over 64 µg/mL, the “MIC Enterococcus faecium (GC 2243)” value ([5]; Enterococcus faecium (GC 2243)) was over 64 µg/mL and the “MIC Enterococcus faecium (GC 4556)” value ([5]; Enterococcus faecium (GC 4556)) was over 64 µg/mL. The “MIC Enterococcus faecium (GC 4557)” value ([5]; Enterococcus faecium (GC 4557)) was 32 µg/mL, the “MIC Enterococcus faecalis (ATCC 29212)” value [5, 21] was over 64 µg/mL and the “MIC Enterococcus faecalis (GC 2242)” value [5, 22] was over 64 µg/mL. For the same substance, the “MIC Enterococcus faecium (GC 2243)” value [5, 23] was over 64 µg/mL, the “MIC Enterococcus faecalis (GC 4552)” value [5, 24] was over 64 µg/mL and the “MIC Enterococcus faecalis (GC 4553)” value [5, 25] was over 64 µg/mL. For the same substance, the “MIC Enterococcus faecalis (GC 4554)” value [5, 26] was over 64 µg/mL, the “MIC Enterococcus faecium (GC 4556)” value [5, 27] was over 64 µg/mL and the “MIC Enterococcus faecium (GC 4557)” value [5, 28] was 32 µg/mL. The “MIC Enterococcus avium (GC 4558)” value [5, 29] was over 64 µg/mL.
